# Where “and” joins values, the source holds several entries; their conditions need not be identical. Equal entries are not always repeated. Where two headings read alike, the source gives them in different places.
# How the values were obtained:
# Test in all cases: greenhouse post-emergence herbicidal test
# AMARE = type: in vivo, Amaranthus retroflexus
# Protocol: The culture containers used were plastic pots containing medium loamy sand with approximately 4.6% of humus and 69.9% sand as substrate. The seeds of the test plants were sown separately for each species.
# For the post-emergence treatment, the test plants were grown to a plant height of from 1 to 15 cm, depending on the plant habit, and only then treated with the active compounds which had been suspended or emulsified in water. To this end, the test plants were either sown directly, and grown in the same containers, or they were first grown separately as seedlings and transplanted into the test containers a few days prior to treatment.
# Depending on the species, the plants were kept at 10-25° C. and 20-35° C., respectively.
# The test period extended over 1 to 3 weeks. During this time, the plants were tended and their response to the individual treatments was evaluated 20 days after treatment except mentioned otherwise.
# Evaluation was carried out using a scale from 0 to 100. 100 means no emergence of the plants, or complete destruction of at least the above-ground parts, and 0 means no damage or normal course of growth.
# The respective stated components A and B, and, if appropriate, C, were formulated as a 10% by weight strength emulsion concentrate and, with addition of the amount of solvent system, introduced into the spray liquor used for applying the active compound. In the examples, the solvent used was water.
# In the examples below, using the method of S. R. Colby (1967) “Calculating synergistic and antagonistic responses of herbicide combinations”, Weeds 15, p. 22 ff., the value E, which is expected if the activity of the individual active compounds is only additive, was calculated. E=X+Y−(X·Y/100)
# ERICA = type: in vivo, Conyza canadensis; design: key to herbicidal activity against ERICA found: rating on a scale from 0 to 100; conditions: post emergence
# Method in brief: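 Post-emergence spray on 1–15 cm plants in medium loamy sand pots; actives as 10% w/w EC diluted in water. 10-25° C / 20-35° C per species. Visual score 20 d after treatment, 0 = no damage, 100 = full kill; Colby expected value E=X+Y−(X·Y/100).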
# KCHSC = type: in vivo, Kochia scoparia; design: key to herbicidal activity against KCHSC found: rating on a scale from 0 to 100; conditions: post emergence; for herbicidal activity against KCHSC found: 6 days after treatment, g/ha a.i.: I.1 31.25
# Method in brief: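 Post-emergence greenhouse test: plants in loamy sand, sprayed at 1–15 cm height with aqueous spray liquor from 10% emulsion concentrates, kept at 10-25 °C or 20-35 °C by species. Damage scored 0–100 (100 = complete destruction), usually 20 days after treatment. Expected additive effect E from Colby: E=X+Y−(X·Y/100).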
compound,measurement,setting,value
O=C(O)c1cc(C2CC2)nc2onc(C3CC3)c12 [I.1],herbicidal activity against AMARE found,"AMARE; a.i. g/ha: I.1 15.6, B.190 62.5, 20 days after treatment",30%
same,herbicidal activity against AMARE found,"AMARE; a.i. g/ha: I.1 20.8, B.192 62.5, 20 days after treatment",70%
same,herbicidal activity against AMARE found,"AMARE; a.i. g/ha: I.1 31.25, B.190 62.5, 20 days after treatment",35%
same,herbicidal activity against AMARE found,"AMARE; a.i. g/ha: I.1 31.25, B.76 225, 20 days after treatment",90%
same,herbicidal activity against AMARE found,"AMARE; a.i. g/ha: I.1 31.25, bentazon Na 125, 20 days after treatment",35%
same,pest or weed control at 31.25 g/ha,"ERICA; Erigeron canadensis, post-emergence, 480 h, I.1 alone 31.25 g/ha a.i., read-out: herbicidal activity against ERICA found",70%
same,pest or weed control at 62.5 g/ha,"ERICA; Erigeron canadensis, post-emergence, 480 h, I.1 alone 62.5 g/ha a.i., read-out: herbicidal activity against ERICA found",75%
same,pest or weed control at 125 g/ha,"ERICA; Erigeron canadensis, post-emergence, 480 h, I.1 alone 125 g/ha a.i., read-out: herbicidal activity against ERICA found",75%
same,pest or weed control at 31.25 g/ha,"ERICA; Erigeron canadensis, post-emergence, 480 h, I.1 31.25 g/ha a.i., read-out: herbicidal activity against ERICA found",50%
same,pest or weed control at 62.5 g/ha,"ERICA; Erigeron canadensis, post-emergence, 480 h, I.1 62.5 g/ha a.i., read-out: herbicidal activity against ERICA found",70%
same,pest or weed control at 125 g/ha,"ERICA; Erigeron canadensis, post-emergence, 480 h, I.1 125 g/ha a.i., read-out: herbicidal activity against ERICA found",65%
same,pest or weed control at 15.62 g/ha,"ERICA; Erigeron canadensis, post-emergence, 480 h, single active, 15.62 g/ha a.i., read-out: herbicidal activity against ERICA found",0%
same,herbicidal activity against ERICA found,"ERICA; 6 days after treatment, g/ha a.i.: I.1 125, naptalam 50, mixture 125+50",70
same,herbicidal activity against ERICA found,"ERICA; I.1 15.62 g/ha, B.95 1 g/ha a.i.",0
same,herbicidal activity against ERICA found,"ERICA; I.1 15.62 g/ha, B.95 2 g/ha a.i.",0
same,herbicidal activity against ERICA found,"ERICA; I.1 31.25 g/ha, B.103 15 g/ha a.i.",0
same,herbicidal activity against ERICA found,"ERICA; I.1 31.25 g/ha, B.95 1 g/ha a.i.",0
same,herbicidal activity against ERICA found,"ERICA; I.1 31.25 g/ha, B.95 2 g/ha a.i.",0
same,herbicidal activity against ERICA found,"ERICA; I.1 62.5 g/ha, B.103 7.5 g/ha a.i.",0
same,herbicidal activity against ERICA found,"ERICA; I.1 62.5 g/ha, B.103 15 g/ha a.i.",0
same,herbicidal activity against ERICA found,"ERICA; I.1 62.5 g/ha, B.57 2 g/ha a.i.",10
same,herbicidal activity against ERICA found,"ERICA; I.1 62.5 g/ha, B.89 25 g/ha a.i.",10
same,herbicidal activity against ERICA found,"ERICA; I.1 62.5 g/ha, B.95 1 g/ha a.i.",10
same,herbicidal activity against ERICA found,"ERICA; I.1 62.5 g/ha, B.95 2 g/ha a.i.",10
same,herbicidal activity against ERICA found,"ERICA; a.i. g/ha: I.1 31.25, B.92 0.5, 20 days after treatment",25%
same,herbicidal activity against ERICA found,"ERICA; a.i. g/ha: I.1 62.5, B.191 225, 20 days after treatment",90%
same,herbicidal activity against ERICA found,"ERICA; a.i. g/ha: I.1 62.5, B.69 25, 20 days after treatment",90%
same,herbicidal activity against ERICA found,"ERICA; a.i. g/ha: I.1 62.5, B.80 250, 20 days after treatment",65%
same,herbicidal activity against ERICA found,"ERICA; application rate a.i.: I.1 20.8 g/ha, B.107 (topramezone) 6 g/ha, alone or as mixture (composition 1.107)",65
same,herbicidal activity against ERICA found,"ERICA; application rate a.i.: I.1 31.25 g/ha, B.100 (isoxaflutole) 12.5 g/ha, alone or as mixture (composition 1.100)",25
same,herbicidal activity against ERICA found,"ERICA; application rate a.i.: I.1 31.25 g/ha, B.84 (paraquat-dichloride) 17.5 g/ha, alone or as mixture (composition 1.84)",55
same,herbicidal activity against ERICA found,"ERICA; application rate a.i.: I.1 62.5 g/ha, B.100 (isoxaflutole) 12.5 g/ha, alone or as mixture (composition 1.100)",75
same,herbicidal activity against ERICA found,"ERICA; application rate a.i.: I.1 62.5 g/ha, B.107 (topramezone) 6 g/ha, alone or as mixture (composition 1.107)",65
same,herbicidal activity against ERICA found,ERICA; applied alone at 62.5 g/ha a.i.,75
same,herbicidal activity against ERICA found,ERICA; applied alone at 125 g/ha a.i.,75 and 65
same,herbicidal activity against ERICA found,"ERICA; g/ha a.i.: I.1 31.25, B.52 2.5, mixture 31.25+2.5",0
same,herbicidal activity against ERICA found,"ERICA; g/ha a.i.: I.1 31.25, B.52 5, mixture 31.25+5",0
same,herbicidal activity against ERICA found,"ERICA; g/ha a.i.: I.1 62.5, B.52 2.5, mixture 62.5+2.5",35
same,herbicidal activity against ERICA found,"ERICA; g/ha a.i.: I.1 62.5, B.52 5, mixture 62.5+5",35
same,pest or weed control at 31.25 g/ha,"KCHSC; Bassia scoparia, post-emergence, 480 h, I.1 alone 31.25 g/ha a.i., read-out: herbicidal activity against KCHSC found",70%
same,pest or weed control at 62.5 g/ha,"KCHSC; Bassia scoparia, post-emergence, 480 h, I.1 alone 62.5 g/ha a.i., read-out: herbicidal activity against KCHSC found",85%
same,pest or weed control at 31.25 g/ha,"KCHSC; Bassia scoparia, post-emergence, 480 h, 31.25 g/ha a.i., read-out: herbicidal activity against KCHSC found",75%
same,pest or weed control at 125 g/ha,"KCHSC; Bassia scoparia, post-emergence, 480 h, I.1 125 g/ha a.i., read-out: herbicidal activity against KCHSC found",95%
same,pest or weed control at 15.625 g/ha,"KCHSC; Bassia scoparia, post-emergence, 480 h, single active, 15.625 g/ha a.i., read-out: herbicidal activity against KCHSC found",0%
same,pest or weed control at 31.25 g/ha,"KCHSC; Bassia scoparia, post-emergence, 480 h, single active, 31.25 g/ha a.i., read-out: herbicidal activity against KCHSC found",30%
same,pest or weed control at 62.5 g/ha,"KCHSC; Bassia scoparia, post-emergence, 480 h, single active, 62.5 g/ha a.i., read-out: herbicidal activity against KCHSC found",70%
same,herbicidal activity against KCHSC found,"KCHSC; B.96 35, mixture 31.25+35",10
same,herbicidal activity against KCHSC found,"KCHSC; B.96 70, mixture 31.25+70",10
same,herbicidal activity against KCHSC found,"KCHSC; B.96 140, mixture 31.25+140",10

# Source: patent US10881110B2, “Herbicidal compositions comprising isoxazolo[5,4-b]pyridines” (BASF SE, priority 2014, dated 2021)
